Test results reported in paper PMC8402032, “Unsymmetric Cisplatin-Based Pt(IV) Conjugates Containing a PARP-1 Inhibitor Pharmacophore Tested on Malignant Pleural Mesothelioma Cell Lines” (Molecules, 2021).

Tests used:
[1] = Reduction with ascorbic acid followed by RP-HPLC; format: physicochemical; conditions: ascorbic acid 10 mM, HEPES 50 mM pH 7.4, 37 °C, cosolvent DMF or MeOH, 24 h
Protocol: To verify the activation by reduction mechanism, complexes 6–9 were challenged with the model bioreductant ascorbic acid (AA, 10 mM in water) in HEPES buffer (HEPES = 4-(2-hydroxyethyl)-1-piperazineethanesulfonic acid, 50 mM, pH = 7.4) at 37 °C. The reaction was monitored by following the RP-HPLC peaks over 24 h. The different solubility and retention times required different experimental conditions for the different compounds (cosolvent DMF or MeOH was necessary to maintain the Pt compounds in solution, >5% v/v). For these reasons, complete reduction for 8 and 9 was observed after 8 h, whereas for 6 and 7, the >85% peak area disappeared after 24 h only. […] Complexes 6–9, having very similar coordination skeletons, can be expected to behave in the same way.
The reduction of complexes with ascorbic acid was followed by monitoring of the reduction of the area of their chromatographic peaks via RP-HPLC over 24 h at 37 °C. The Pt compounds were dissolved in methanol or DMF (up to 20 mM) and diluted with different quantities of 50 mM 4-(2-hydroxyethyl)piperazine-1-ethanesulfonic acid (HEPES) buffer (pH = […]) containing 10 mM ascorbic acid. The mixtures were microfiltered to eliminate the precipitated complex. The chromatographic conditions were similar to those for the determination of lipophilicity (see Section 3.4), with different percentages of methanol depending on the complex.

PARP-1 = target: T1, PARP-1 (Homo sapiens, UniProt P09874); experiment: Cellular thermal shift assay (CETSA) for in-cell PARP-1 target engagement; format: binding; conditions: MSTO-211H intact cells, 50 µM, 15 min; 52, 56 and 60 °C
T1 construct: endogenous in cells; host or cells: MSTO-211H cells
T1 sequence (P09874 whole entry): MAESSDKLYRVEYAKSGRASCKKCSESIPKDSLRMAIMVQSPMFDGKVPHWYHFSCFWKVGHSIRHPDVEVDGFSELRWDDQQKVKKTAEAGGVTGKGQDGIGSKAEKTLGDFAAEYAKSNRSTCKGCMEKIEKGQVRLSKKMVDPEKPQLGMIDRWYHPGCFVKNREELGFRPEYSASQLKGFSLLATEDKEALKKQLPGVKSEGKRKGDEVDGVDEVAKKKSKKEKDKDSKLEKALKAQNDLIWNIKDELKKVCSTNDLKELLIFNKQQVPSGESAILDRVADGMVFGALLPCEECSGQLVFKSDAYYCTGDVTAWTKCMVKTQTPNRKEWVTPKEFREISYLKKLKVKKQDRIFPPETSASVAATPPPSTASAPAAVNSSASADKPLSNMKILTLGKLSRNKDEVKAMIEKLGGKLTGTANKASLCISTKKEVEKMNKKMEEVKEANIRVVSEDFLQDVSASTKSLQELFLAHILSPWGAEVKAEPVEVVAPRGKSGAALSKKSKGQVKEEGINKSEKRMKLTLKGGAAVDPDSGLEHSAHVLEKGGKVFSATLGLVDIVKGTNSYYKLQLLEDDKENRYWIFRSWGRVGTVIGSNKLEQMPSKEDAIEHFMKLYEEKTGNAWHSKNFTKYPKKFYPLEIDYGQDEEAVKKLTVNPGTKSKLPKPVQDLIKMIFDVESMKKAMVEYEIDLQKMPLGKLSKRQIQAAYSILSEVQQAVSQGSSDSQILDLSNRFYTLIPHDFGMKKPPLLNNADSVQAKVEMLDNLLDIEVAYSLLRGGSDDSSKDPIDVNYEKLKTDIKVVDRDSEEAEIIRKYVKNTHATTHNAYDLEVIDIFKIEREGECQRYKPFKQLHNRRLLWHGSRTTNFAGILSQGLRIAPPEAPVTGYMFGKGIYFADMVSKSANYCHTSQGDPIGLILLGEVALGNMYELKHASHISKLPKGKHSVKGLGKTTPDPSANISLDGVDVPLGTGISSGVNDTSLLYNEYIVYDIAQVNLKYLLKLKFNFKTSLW
Source text: In order to confirm that PARP-1 is the direct target of 6, the cellular thermal shift assay (CETSA®) was employed. This assay is based on the biophysical principle of ligand-induced thermal stabilization of target proteins. Indeed, ligand-bound proteins are stabilized by their interacting partner and melt at a higher temperature with respect to the native protein. The test involves the drug treatment of the cellular system of choice, the heating of the cell to different temperatures, and the quantification of the presence of target protein in the soluble fraction by Western blotting to validate and quantify target engagement of drugs in cells and tissues.
Multiple aliquots of MSTO-211H intact cells, previously incubated with the diluent, 3-ABA or 6, were heated to different temperatures ranging from 48 °C to 60 °C. After lysis, the soluble fractions were analyzed by SDS-PAGE followed by Western blot. In Figure 6, the stabilities of 6 and 3-ABA, at 52, 56, and 60 °C, are compared.
For the intact cell experiments, MSTO-211H cells were treated with the diluent of the compound (Ctrl) or 6 (50 µM) in complete medium for 15 min at 37 °C, in a humidified environment containing 5% CO2. […] The supernatants were then analyzed by SDS-PAGE followed by Western blot analysis as previously described. […]

human MPM cell lines = experiment: Antiproliferative activity on the panel of human MPM cell lines (summary); format: cell-based
Protocol: Complexes 6–9 were tested on a panel of human MPM cell lines together with CDDP and SAA1, added for comparison (Table 1). The half-maximal inhibitory concentration, IC50, was determined on MSTO-211H (biphasic phenotype), REN (epithelioid), BR95 (epithelioid), and MM98 (sarcomatoid) cancer cell lines to identify the most promising Pt(IV) conjugate to be further investigated. To determine the number of viable cells, the use of the dye exclusion assay was preferred to the colorimetric assay because of the heterogeneity in the energy metabolism between the different MPM cell lines. This may justify minor differences with respect to the previously published IC50 for CDDP [40].
Cells were seeded at a density of 10 × 10^4 cells per well in 6-well plates in RPMI medium supplemented with 10% fetal bovine serum (FBS), 100 μg mL^−1 streptomycin, and 10 μg mL^−1 penicillin and incubated overnight at 37 °C in a humidified environment containing 5% CO2 to allow adherence. Cisplatin was dissolved in 0.9% w/v aqueous NaCl brought to pH = 3 with HCl (final stock concentration 1 mM). […]
Following 72 h of treatment with the diluent of the compound (Ctrl) or different doses of the Pt compounds, cells were trypsinized and stained with Trypan blue. The number of cells considered viable (unstained cells) was counted in a Bürker haemocytometer within 5 min after staining.

peak area disappeared after 24 h [1]: > 85%
SMILES: CC(=O)[O][Pt]([NH2])([NH2])([Cl])([Cl])[O]C(=O)CCNC(=O)c1cccc(NC(=O)OCC2c3ccccc3-c3ccccc32)c1 [Compound 6, (OC-6-44)-Acetato[3-(3-(fmoc-amino)-benzamido)-propanoato]-diammine-dichlorido-platinum(IV)]
thermal stability of PARP-1 protein levels (PARP-1): more stable to heating as compared with the control and 3-ABA groups
ratio between the IC50 of CDDP and the IC50 of the Pt(IV) complex, all cell lines (human MPM cell lines): around 2
